Results: patent publication US12552790B2, “Positive modulators of the muscarinic acetylcholine receptor M4” (Vanderbilt University, priority 2023, dated 2026)

Target: T1, Human M2 (Homo sapiens, UniProt P08172)
T1 construct: expressed in transfected cells; host or cells: CHO-K1
T1 sequence (P08172 1-466): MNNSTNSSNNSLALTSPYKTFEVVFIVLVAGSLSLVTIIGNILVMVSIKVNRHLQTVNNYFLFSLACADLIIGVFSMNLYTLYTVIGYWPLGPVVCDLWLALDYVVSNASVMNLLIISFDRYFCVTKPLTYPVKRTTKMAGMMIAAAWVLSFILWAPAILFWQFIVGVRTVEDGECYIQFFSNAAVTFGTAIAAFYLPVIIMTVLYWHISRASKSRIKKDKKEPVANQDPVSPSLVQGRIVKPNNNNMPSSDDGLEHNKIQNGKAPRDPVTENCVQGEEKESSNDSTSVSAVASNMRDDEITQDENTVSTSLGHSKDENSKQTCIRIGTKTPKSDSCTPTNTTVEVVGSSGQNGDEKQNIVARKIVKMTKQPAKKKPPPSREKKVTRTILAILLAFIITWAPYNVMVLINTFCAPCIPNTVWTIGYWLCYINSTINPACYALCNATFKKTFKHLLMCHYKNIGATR
Assay: M2 cell-based functional assay, calcium mobilization (selectivity)
Details: for Emax at 30 µM: % ACh maximum at 30 μM; for EC50: M2 cell-based functional assay, calcium flux
In short: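 CHO-K1 cells stably expressing receptor, Fluo-4-AM loaded (final 1.15 μM), compound added (140 s) then ACh at EC20 and EC80; Ca flux read at 480/530 nm. Normalized to max ACh response; agonist, PAM (EC20 increase) and antagonist (EC80 decrease) activity fitted by four-parameter logistic for EC50 and Emax.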

Work on [2H]C1([2H])Oc2ccc(OC3CCN(c4nc5c(cc4C)C(=O)NC5)CC3)cc2OC1([2H])[2H] [Compound 3, 2-(4-((2,3-dihydrobenzo[b][1,4]dioxin-6-yl-2,2,3,3-d4)oxy)piperidin-1-yl)-3-methyl-6,7-dihydro-5H-pyrrolo[3,4-b]pyridin-5-one] yielded an Emax at 30 µM of 61% and an EC50 of 0.658 µM.

[2H]C1([2H])Oc2ccc(OC3CCN(c4nc5nn(C)c(=O)n5cc4C)CC3)cc2OC1([2H])[2H] [Compound A6, 7-(4-((2,3-dihydrobenzo[b][1,4]dioxin-6-yl-2,2,3,3-d4)oxy)piperidin-1-yl)-2,6-dimethyl-[1,2,4]triazolo[4,3-a]pyrimidin-3(2H)-one] was tested, and the Emax at 30 µM was 68% and the EC50 was 0.499 µM.

With [2H]C1([2H])Oc2ccc(OC3CCN(c4nc5nn(C)c(=O)n5c(C)c4C)CC3)cc2OC1([2H])[2H] [Compound A10, 7-(4-((2,3-dihydrobenzo[b][1,4]dioxin-6-yl-2,2,3,3-d4)oxy)piperidin-1-yl)-2,5,6-trimethyl-[1,2,4]triazolo[4,3-a]pyrimidin-3(2H)-one] the Emax at 30 µM was 54% and the EC50 was 1.52 µM.
